AC50 data for 93 compounds are collected here from PubChem BioAssay AID463203 (Broad Institute, 2010).

Active and inactive are the calls of the source.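 How the source made its calls: active means more than half of replicate measurements showing over 20% loss of kinase signal relative to plate controls; inconclusive means some but at most half of replicates over 20% loss; inactive means no replicate over 20% signal loss.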 Some results are limits rather than exact numbers.

Sequence of Glycogen synthase kinase-3 alpha (Homo sapiens) (P49840 whole entry, looked up): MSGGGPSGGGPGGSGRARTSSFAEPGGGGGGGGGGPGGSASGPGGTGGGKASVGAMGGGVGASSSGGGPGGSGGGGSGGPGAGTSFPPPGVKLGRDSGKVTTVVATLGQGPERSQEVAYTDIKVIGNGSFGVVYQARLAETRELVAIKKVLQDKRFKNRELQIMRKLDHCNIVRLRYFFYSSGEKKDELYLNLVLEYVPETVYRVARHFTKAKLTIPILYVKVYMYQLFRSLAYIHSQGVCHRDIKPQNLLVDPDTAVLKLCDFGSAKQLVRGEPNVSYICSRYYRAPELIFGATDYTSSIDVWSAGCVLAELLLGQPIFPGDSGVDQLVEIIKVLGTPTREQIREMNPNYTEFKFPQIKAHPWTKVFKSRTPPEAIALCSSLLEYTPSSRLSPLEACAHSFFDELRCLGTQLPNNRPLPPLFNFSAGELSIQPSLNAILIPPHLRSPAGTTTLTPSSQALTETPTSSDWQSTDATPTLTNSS

This assay concerns the target Glycogen synthase kinase-3 alpha (Homo sapiens) (UniProt P49840). Nature of the assay: concentration-response blocking of human GSK3A – biochemical, luminescence, cell-free homogeneous, retest, dose response (AID 463203). The conditions noted are these: GSK-3 alpha enzyme, ADP-Glo luminescence, 60 min. In general terms: ADP-Glo first removes unused ATP, then detects ADP through luciferase.
As for `Nc1nc(NCCO)nc(N2CCCCCC2)c1[N+](=O)[O-]`, the AC50 is 18.4 µM.

Take `S=C(NCCc1ccccc1)Nc1cccc2cnccc12`: the AC50 was > 30 µM (inactive).

On to `CCCOC(=O)c1[nH]c2c(c1C)C(=O)CC(c1cc(OC)c(OC)c(OC)c1)C2` (stereo not drawn), for which the AC50 is > 30 µM (inactive).

Consider `O=C(NCCCN1CCN(CCCNC(=O)c2ccc3c(c2)OCO3)CC1)c1ccc2c(c1)OCO2`, for which the concentration at half-maximal activity (AC50) was 27.7 µM.

Consider `CCc1cc(C(=O)c2ccc(OC)cc2)c(NC(=O)COCC(=O)O)s1`, for which the AC50 was > 30 µM (inactive).

In the case of `O=C1c2cccc(O)c2C(=O)c2c(O)cc(CO)cc21`, the AC50 is > 30 µM (inactive).

With `CCCC(=O)NNC(=O)c1c(O)c2ccccc2[nH]c1=O`, the AC50 was > 30 µM (inactive).

On to `CC[n+]1c(/C=C/N(C)c2ccccc2)n(-c2ccccc2)c2ccc(-c3nc4ccccc4s3)cc21`, for which the AC50 was > 30 µM (inactive).

Consider `O=C(O)c1cccc(Nc2nc(-c3cccnc3)nc3ccccc23)c1`, for which the half-maximal activity concentration (AC50) was 12.5 µM.

As for `O=c1c2ccccc2oc2ccc(NCCCn3ccnc3)cc12`, the AC50 was > 30 µM (inactive).

On to `COc1ccccc1NC(=O)CSc1nnc(-c2ccccc2)o1`, for which the AC50 was > 30 µM (inactive).

As to `O=P(COCCOCP(=O)(c1ccccc1)c1ccccc1)(c1ccccc1)c1ccccc1`, the AC50 is > 30 µM (inactive).

Turning to `Oc1ccc(-c2nnc(-c3ccccc3)c(-c3ccccc3)n2)cc1`, the AC50 was > 30 µM (inactive).

In the case of `COc1ccc(OC)c(N=c2oc3c(OC)cccc3cc2C(=O)NCc2ccco2)c1`, the AC50 is > 30 µM (inactive).

With `CCN1CCN(CC(=O)Nc2nc3ccc(OC)cc3s2)CC1`, the AC50 was > 30 µM (inactive).

With `CC(Oc1ccccc1)C(=O)Nc1nnc(C2CCCCC2)s1` (stereo not drawn), the AC50 is > 30 µM (inactive).

As to `NCCNc1cc(N2CCCC2)ccc1[N+](=O)[O-]`, the AC50 was > 30 µM (inactive).

Consider `CCSc1nc2sc3c(c2c(=O)n1CC)CC(C)(C)OC3`, for which the AC50 was > 30 µM (inactive).

`CCSc1nnc2ccc(-c3cccs3)nn12`: the AC50 is > 30 µM (inactive).

As to `CC1CCCC(C)N1C(=O)COC(=O)c1c[nH]c2ccccc12` (stereo not drawn), the AC50 was > 30 µM (inactive).

Regarding `CCSc1nc2sc3c(c2c(=O)n1-c1ccccc1C)CCN(C)C3`, the AC50 is > 30 µM (inactive).

With `Nc1cc(C(F)(F)F)ccc1C(=O)O`, the AC50 is > 30 µM (inactive).

Regarding `Cc1nc2c(ccc3c2ccc2nc(C)sc23)s1`, the AC50 was > 30 µM (inactive).

On to `COc1cc(CN2CCN(Cc3ccc([N+](=O)[O-])cc3)CC2)c([N+](=O)[O-])cc1OC`, for which the AC50 is > 30 µM (inactive).

As to `Oc1ccc(-c2csc(Nc3cccnc3)n2)cc1`, the concentration at half-maximal activity (AC50) was 10.7 µM.

Consider `Nc1nc(NCCc2ccccc2)nc(NCc2ccccc2)c1[N+](=O)[O-]`, for which the AC50 was 1.66 µM.

With `O=[N+]([O-])c1ccc(NCCCN2CCOCC2)nc1`, the AC50 is > 30 µM (inactive).

Regarding `CCN1CCN(c2nc(N)c([N+](=O)[O-])c(Nc3ccc(C)c(C)c3)n2)CC1`, the AC50 was > 30 µM (inactive).

With `CCSc1cc(N2CCCC2)nc(-c2ccccc2)n1`, the AC50 was > 30 µM (inactive).

With `COc1ccccc1C(CNc1ccc(S(=O)(=O)N2CCCC2)cc1[N+](=O)[O-])N(C)C` (stereo not drawn), the AC50 is > 30 µM (inactive).

Regarding `CCOc1ccc(Cn2nnc(C(=O)Nc3cc(OC)cc(OC)c3)c2N)cc1`, the AC50 was 13.7 µM.

Turning to `Nc1nonc1-n1nnc(C(=O)N/N=C/c2ccncc2)c1CSc1ccc(Cl)cc1`, the AC50 is > 30 µM (inactive).

Turning to `COc1ccc(-c2cn3cccnc3n2)cc1NC(=O)CC(C)C`, the AC50 is > 30 µM (inactive).

In the case of `S=C(Nc1ccc(Nc2ccccc2)cc1)Nc1ccccn1`, the AC50 is > 30 µM (inactive).

On to `Clc1ccc(C2=Nn3c(nnc3-c3cccnc3)SC2)s1`, for which the AC50 is > 30 µM (inactive).

Consider `O=C(CSCc1ccc([N+](=O)[O-])cc1)NN=C1CCCCCC1`, for which the AC50 was > 30 µM (inactive).

On to `CC(C)C(=O)NC(=S)/C=C1/N(C)c2ccccc2C1(C)C`, for which the AC50 is > 30 µM (inactive).

Take `c1ccc(N2CCN(c3nc4ccccc4n4cnnc34)CC2)cc1`: the AC50 was > 30 µM (inactive).

Take `Nc1nc(NCCOCCO)nc(N2CCCCCC2)c1[N+](=O)[O-]`: the AC50 was 26.4 µM.

In the case of `O=C1CCCC2=C1C(c1ccc(Br)cc1)c1c([nH]c(=S)[nH]c1=O)N2` (stereo not drawn), the AC50 was > 30 µM (inactive).

`COc1ccc(OC)c(C2=Nn3c(nnc3-c3ccncc3)SC2)c1`: the AC50 was 1.5 µM.

Turning to `Cc1nn2cc(-c3ccccc3)nc2[nH]c1=O`, the AC50 is > 30 µM (inactive).

With `CCOc1ccccc1-n1c(O)c(C=NCc2ccc3c(c2)OCO3)c(=O)[nH]c1=O`, the AC50 is 17.5 µM.

Take `NS(=O)(=O)c1ccc(-c2ccc(/C=C3\SC(=O)NC3=O)o2)cc1`: the half-maximal activity concentration (AC50) is 5.29 µM.

Consider `O=C(CSc1nnc(-c2ccc(O)cc2)o1)Nc1ccccc1`, for which the AC50 is 16.3 µM.

On to `CC(C)(C)OC(=O)N1CCC(NC(=O)c2[nH]cnc2C(=O)Nc2ccccc2)CC1`, for which the AC50 was > 30 µM (inactive).

Take `CC1CCC2(CC1)NC(=O)N(CC(=O)Nc1ccc(C(N)=O)cc1)C2=O` (stereo not drawn): the AC50 is > 30 µM (inactive).

For the compound `O=[N+]([O-])c1ccc(O)c(CN2CCCCCC2)c1`, the AC50 is > 30 µM (inactive).

As for `c1ccc2c(c1)ccc1nnc(SCc3ccc4c(c3)OCO4)n12`, the AC50 is > 30 µM (inactive).

For `COc1ccc(-c2nnc(-c3ccccc3O)o2)cc1`, the AC50 is > 30 µM (inactive).

For `COc1cc2c(cc1OC)C(C)N(C(=O)Cn1ncc3c1-c1cc(C)ccc1OC3)CC2` (stereo not drawn), the AC50 is > 30 µM (inactive).

In the case of `CC(=O)OCC1OC(n2ccc(=O)[nH]c2=O)C(O)C1O` (stereo not drawn), the AC50 was > 30 µM (inactive).

On to `CC1(C)Cc2nc3sc4c(SCC(=O)O)ncnc4c3cc2CO1`, for which the AC50 is 6.18 µM.

Regarding `Cc1cc(NC(=O)c2cccc(S(=O)(=O)N3CC(c4ccccc4)CC3=O)c2)no1` (stereo not drawn), the AC50 is > 30 µM (inactive).

For the compound `O=c1cc(-c2ccccc2)oc2ccccc12`, the AC50 is > 30 µM (inactive).

Turning to `COc1ccc(C(=O)OCC(=O)Nc2c(C)n(C)n(-c3ccccc3)c2=O)cc1`, the AC50 is > 30 µM (inactive).

`Cc1nccnc1Sc1ccccc1`: the AC50 was > 30 µM (inactive).

In the case of `Clc1ccccc1C1=Nn2c(nnc2-c2ccncc2)SC1`, the concentration at half-maximal activity (AC50) was 2.35 µM.

Take `COC(=O)c1cn(-c2ccccc2)nc1-c1cccnc1`: the AC50 is > 30 µM (inactive).

With `C=CCn1c(O)c(C(C)=NCCCn2ccnc2)c(=O)[nH]c1=O`, the AC50 is 19.4 µM.

With `Cc1cccc(-n2ncc(C#N)c2-n2cccc2)c1`, the AC50 is > 30 µM (inactive).

Turning to `COc1ccccc1-n1c(O)c(C=NCc2ccc3c(c2)OCO3)c(=O)[nH]c1=O`, the AC50 was 31.3 µM.

As for `Nc1cc(C(=O)O)c(N)c2c1C(=O)c1ccccc1C2=O`, the AC50 is 7.46 µM.

For the compound `COC(=O)c1sccc1-c1ccc(C(N)=O)o1`, the half-maximal activity concentration (AC50) was 26.8 µM.

Take `Cc1ccc(N(C)C(=O)C2CCCN2S(=O)(=O)c2cccc3nsnc23)cc1` (stereo not drawn): the AC50 was 29.8 µM.

Take `O=c1c2ccccc2[nH]c2ccccc12`: the AC50 is > 30 µM (inactive).

`COc1ccc(NC(=O)Nc2cc(F)ccc2C)cc1`: the AC50 was > 30 µM (inactive).

On to `c1ccc(-c2noc(-c3ccc4c(c3)OCO4)n2)cc1`, for which the AC50 is > 30 µM (inactive).

In the case of `NNC(=O)CCCCCCCCCCOCCCCO`, the AC50 is > 30 µM (inactive).

As to `Cn1c(=O)c2[nH]cnc2n(-c2ccccc2)c1=O`, the AC50 is > 30 µM (inactive).

For `O=C(CSc1ccc(F)cc1)Nc1ccc2c(c1)C(=O)NC2=O`, the AC50 is 12.5 µM.

Consider `CN(C)CCCNS(=O)(=O)c1ccc(NC2CCCCCC2)c([N+](=O)[O-])c1`, for which the AC50 is > 30 µM (inactive).

Regarding `CN(C(=O)Oc1ccc([N+](=O)[O-])cc1)c1ccccc1`, the AC50 was > 30 µM (inactive).

Consider `COC(=O)c1c(NC(=O)COC(=O)c2ccccn2)sc(C)c1C`, for which the AC50 is > 30 µM (inactive).

Take `O=C(CNS(=O)(=O)c1ccccc1)N/N=C/c1ccc(O)cc1`: the AC50 was 30.2 µM.

As to `CC1=C(C#N)c2nc(N)c(C#N)c(C)c2/C1=C\c1ccc(OCC(=O)O)c(Cl)c1`, the AC50 was 20.4 µM.

For `CC(=O)c1sc(NC(=O)c2ccc3c(c2)OCO3)nc1C`, the AC50 is > 30 µM (inactive).

As for `O=C(COC(=O)C1CCC1)c1c[nH]c2ccccc12`, the AC50 was > 30 µM (inactive).

Consider `CCOC(=O)c1nn(-c2ccc(Cl)cc2)c2nc(Nc3ccccc3)cc(=O)n12`, for which the AC50 is > 30 µM (inactive).

On to `Cc1ccc(CSc2nnc(-c3cccnc3)o2)cc1`, for which the AC50 is > 30 µM (inactive).

In the case of `Cc1oc2ccc(O)c(CN(C)C)c2c1C(=O)c1ccccc1`, the AC50 is > 30 µM (inactive).

Take `S=c1[nH]nc(-c2cc3c(s2)-c2ccccc2CC3)o1`: the AC50 was 22.9 µM.

In the case of `O=C(CCc1nnc(-c2ccc3c(c2)OCO3)o1)N1CCC(c2ccc(F)cc2)C1` (stereo not drawn), the AC50 is 10 µM.

Take `Cc1ccccc1C(=O)O/N=C(\N)c1cccc([N+](=O)[O-])c1`: the AC50 is > 30 µM (inactive).

Take `Brc1ccc(-c2nnc3ccc(Nc4ccccc4)nn23)cc1`: the AC50 is > 30 µM (inactive).

For `COc1cccc(/C=N/NC(=O)COc2cccc3cccnc23)c1O`, the AC50 was > 30 µM (inactive).

Regarding `COc1ccc(-c2cc(C(F)(F)F)nc(SCCC(=O)NCc3ccccc3)n2)cc1`, the AC50 was > 30 µM (inactive).

Turning to `O=C(COC(=O)c1cccc(S(=O)(=O)N2CCOCC2)c1)Nc1ccc(Cl)cn1`, the half-maximal activity concentration (AC50) was 7.3 µM.

For the compound `Cc1ccc2nc(C3CCCCC3)[nH]c2c1`, the AC50 was > 30 µM (inactive).

On to `CCN(CC)c1nc(N)c([N+](=O)[O-])c(NCCO)n1`, for which the AC50 was > 30 µM (inactive).

For `COc1ccc(Nc2ccc(S(=O)(=O)N3CCCCC3)cc2[N+](=O)[O-])cc1OC`, the AC50 was > 30 µM (inactive).

For `N#C/C(=N\Nc1cccc(F)c1)C(=O)C1CC1`, the AC50 was > 30 µM (inactive).

For the compound `COc1ccc(-c2cc(=O)oc3cc(O)ccc23)cc1`, the AC50 is 19.5 µM.

The AC50 is the midpoint of the concentration-response curve, whichever way the signal moves.
